# Measured values: US20260297080A1, “BICYCLIC COMPOUNDS AS CDK INHIBITORS” (BeOne Medicines I GmbH, priority 2022, published 2026)
# What was measured:
# CDK2/Cyclin E1 = CDK2/Cyclin E1 (Homo sapiens, UniProt P24941); assay: CDK2/Cyclin E1 Biochemical Assay (TR-FRET), 0.060 mM ATP; settings: 0.15 μM Rb (Ser780)-biotin substrate, pH7.0, 60 min preincubation, 120 min reaction, room temperature
# How it was run: (§1)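 Kinase preincubated with compound (0–10 μM) 60 min at room temperature, then reaction started with ATP and 0.15 μM Rb (Ser780)-biotin peptide and run 120 min in HEPES pH 7.0 buffer with 50 mM MgCl2. Phospho-Rb detected by Eu-cryptate anti-pRb(Ser780)/streptavidin-XL665 TR-FRET (665/620 nm ratio); IC50 from four-parameter logistic fit.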
# CDK1/Cyclin B1 = CDK1/Cyclin B1 (Homo sapiens, UniProt P06493); assay: CDK1/Cyclin B1 Biochemical Assay (TR-FRET), 0.015 mM ATP; settings: 0.15 μM Rb (Ser780)-biotin substrate, pH7.0, 60 min preincubation, 120 min reaction, room temperature
# Sequence of CDK1/Cyclin B1 (P06493 whole entry): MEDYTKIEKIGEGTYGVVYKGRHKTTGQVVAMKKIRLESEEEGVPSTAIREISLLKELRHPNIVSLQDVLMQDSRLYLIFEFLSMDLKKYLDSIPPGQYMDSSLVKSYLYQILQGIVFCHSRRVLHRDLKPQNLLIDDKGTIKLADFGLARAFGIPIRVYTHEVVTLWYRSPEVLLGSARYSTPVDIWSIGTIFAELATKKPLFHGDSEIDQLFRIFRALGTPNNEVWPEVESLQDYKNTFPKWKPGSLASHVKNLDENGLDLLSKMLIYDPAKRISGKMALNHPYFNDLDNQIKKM
# Sequence of CDK1/Cyclin B1 (P14635 whole entry partner): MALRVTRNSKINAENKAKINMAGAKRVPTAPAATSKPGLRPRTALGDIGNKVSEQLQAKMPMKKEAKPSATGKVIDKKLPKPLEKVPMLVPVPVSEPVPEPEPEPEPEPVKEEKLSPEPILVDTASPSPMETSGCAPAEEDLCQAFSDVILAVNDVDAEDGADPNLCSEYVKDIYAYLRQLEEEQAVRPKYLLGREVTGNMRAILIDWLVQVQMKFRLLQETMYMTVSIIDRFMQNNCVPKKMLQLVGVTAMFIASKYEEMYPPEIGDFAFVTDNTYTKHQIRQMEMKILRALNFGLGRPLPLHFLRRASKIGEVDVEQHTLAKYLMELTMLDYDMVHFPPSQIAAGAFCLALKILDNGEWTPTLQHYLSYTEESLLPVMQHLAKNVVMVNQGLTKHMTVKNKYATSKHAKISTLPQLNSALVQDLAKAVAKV
# How it was run: as §1
SMILES,IC50 (CDK2/Cyclin E1) [µM],IC50 (CDK1/Cyclin B1) [µM]
"O=C(O[C@H]1CC[C@@H](c2cc(Nc3ccc4c(c3)CNS4(=O)=O)n[nH]2)C1)N1CCC(O)C1 (relative stereo) [Example 175, cis-3-(3-((1,1-dioxido-2,3-dihydrobenzo[d]isothiazol-5-yl)amino)-1H-pyrazol-5-yl)cyclopentyl 3-hydroxypyrrolidine-1-carboxylate]",0.01,0.359
"CC(C)NC(=O)O[C@H]1CC[C@@H](c2cc(Nc3ccc4c(c3)C3(CC3)S(=O)(=O)N4)n[nH]2)C1 (relative stereo) [Example 200, cis-3-(3-((2,2-dioxido-1H-spiro[benzo[c]isothiazole-3, 1′-cyclopropan]-5-yl)amino)-1H-pyrazol-5-yl)cyclopentyl isopropylcarbamate]",0.0055,0.075
"CC(C)NC(=O)O[C@H]1CC[C@@H](c2cc(Nc3ccc4c(c3F)CN(C3CC3)S4(=O)=O)n[nH]2)C1 (single isomer, unassigned) [Example 116b, cis-3-(3-((2-cyclopropyl-4-fluoro-1,1-dioxido-2,3-dihydrobenzo[d]isothiazol-5-yl)amino)-1H-pyrazol-5-yl)cyclopentyl isopropylcarbamate]",0.0054,0.189
"CC(C)NC(=O)O[C@H]1CC[C@@H](c2cc(Nc3cc(F)c4c(c3)CNS4(=O)=O)n[nH]2)C1 (relative stereo) [Example 29, cis-3-(3-((7-fluoro-1,1-dioxido-2,3-dihydrobenzo[d]isothiazol-5-yl)amino)-1H-pyrazol-5-yl)cyclopentyl isopropylcarbamate]",0.0022,0.113
"CC(C)NC(=O)O[C@H]1CC[C@@H](c2cc(Nc3ccc4c(c3F)CN(C3CCN(S(C)(=O)=O)C3)S4(=O)=O)n[nH]2)C1 (relative stereo) [Example 85, cis-3-(3-((4-fluoro-2-(1-(methylsulfonyl)pyrrolidin-3-yl)-1,1-dioxido-2,3-dihydrobenzo[d]isothiazol-5-yl)amino)-1H-pyrazol-5-yl)cyclopentyl isopropylcarbamate]",0.0046,0.47
"CCCNC(=O)O[C@H]1CC[C@@H](c2cc(Nc3ccc4c(c3F)C(C)NS4(=O)=O)n[nH]2)C1 (single isomer, unassigned) [Example 53b, cis-3-(3-((4-fluoro-3-methyl-1,1-dioxido-2,3-dihydrobenzo[d]isothiazol-5-yl)amino)-1H-pyrazol-5-yl)cyclopentyl propylcarbamate]",0.0038,0.092
"CC1(NC(=O)O[C@H]2CC[C@@H](c3cc(Nc4ccc5c(c4Cl)CNS5(=O)=O)n[nH]3)C2)CC1 (single isomer, unassigned) [Example 40a, cis-3-(3-((4-chloro-1,1-dioxido-2,3-dihydrobenzo[d]isothiazol-5-yl)amino)-1H-pyrazol-5-yl)cyclopentyl(1-methylcyclopropyl)carbamate]",0.0054,0.37
"CC1(NC(=O)O[C@H]2CC[C@@H](c3cc(Nc4ccc5c(c4F)CNS5(=O)=O)n[nH]3)C2)COC1 (single isomer, unassigned) [Example 164b, cis-3-(3-((4-fluoro-1,1-dioxido-2,3-dihydrobenzo[d]isothiazol-5-yl)amino)-1H-pyrazol-5-yl)cyclopentyl(3-methyloxetan-3-yl)carbamate]",0.0084,0.189
"CCCNC(=O)O[C@H]1CC[C@@H](c2cc(Nc3ccc4c(c3F)CN(C3CC3)S4(=O)=O)n[nH]2)C1 (single isomer, unassigned) [Example 118b, cis-3-(3-((2-cyclopropyl-4-fluoro-1,1-dioxido-2,3-dihydrobenzo[d]isothiazol-5-yl)amino)-1H-pyrazol-5-yl)cyclopentyl propylcarbamate]",0.008,0.168
"CC(C)NC(=O)O[C@H]1CC[C@@H](c2cc(Nc3ccc4c(c3)C(=O)NS4(=O)=O)n[nH]2)C1 (relative stereo) [Example 17, cis-3-(3-((1,1-dioxido-3-oxo-2,3-dihydrobenzo[d]isothiazol-5-yl)amino)-1H-pyrazol-5-yl)cyclopentyl isopropylcarbamate]",0.0118,0.471
"CC1(NC(=O)O[C@H]2CC[C@@H](c3cc(Nc4ccc5c(c4F)CS(=O)(=O)N5CC(F)(F)F)n[nH]3)C2)CC1 (single isomer, unassigned) [Example 264b, cis-3-(3-((4-fluoro-2,2-dioxido-1-(2,2,2-trifluoroethyl)-1,3-dihydrobenzo[c]isothiazol-5-yl)amino)-1H-pyrazol-5-yl)cyclopentyl(1-methylcyclopropyl)carbamate]",0.0011,0.022
"CC(C)NC(=O)O[C@H]1CC[C@@H](c2cc(Nc3ccc4c(c3F)C(C)NS4(=O)=O)n[nH]2)C1 (single isomer, unassigned) [Example 51c, cis-3-(3-((4-fluoro-3-methyl-1,1-dioxido-2,3-dihydrobenzo[d]isothiazol-5-yl)amino)-1H-pyrazol-5-yl)cyclopentyl isopropylcarbamate]",0.0021,0.106
"Cc1cc(Nc2cc([C@@H]3CC[C@H](OC(=O)NC(C)C)C3)[nH]n2)cc2c1NS(=O)(=O)C2 (relative stereo) [Example 242, cis-3-(3-((7-methyl-2,2-dioxido-1,3-dihydrobenzo[c]isothiazol-5-yl)amino)-1H-pyrazol-5-yl)cyclopentyl isopropylcarbamate]",0.0051,0.07
"Cc1c(Nc2cc([C@@H]3CC[C@H](OC(=O)NC(C)C)C3)[nH]n2)ccc2c1CN(C)S2(=O)=O (relative stereo) [Example 35, cis-3-(3-((2,4-dimethyl-1,1-dioxido-2,3-dihydrobenzo[d]isothiazol-5-yl)amino)-1H-pyrazol-5-yl)cyclopentyl isopropylcarbamate]",0.0089,0.296
"CC(=O)N1CC(CN2c3ccc(Nc4cc([C@@H]5CC[C@H](OC(=O)NC(C)C)C5)[nH]n4)cc3CS2(=O)=O)C1 (relative stereo) [Example 214, cis-3-(3-((1-((1-acetylazetidin-3-yl)methyl)-2,2-dioxido-1,3-dihydrobenzo[c]isothiazol-5-yl)amino)-1H-pyrazol-5-yl)cyclopentyl isopropylcarbamate]",0.0017,0.044
"CC(C)NC(=O)O[C@H]1CC[C@@H](c2cc(Nc3cc4c(cc3F)CS(=O)(=O)N4)n[nH]2)C1 (relative stereo) [Example 310, cis-3-(3-((5-fluoro-2,2-dioxido-1,3-dihydrobenzo[c]isothiazol-6-yl)amino)-1H-pyrazol-5-yl)cyclopentyl isopropylcarbamate]",0.081,2.2
CCCNC(=O)O[C@H]1CC[C@@H](c2cc(Nc3ccc4c(c3)CS(=O)(=O)N4)n[nH]2)C1 [Example 195b],0.017,0.067
"CC(C)NC(=O)O[C@H]1CC[C@@H](c2cc(Nc3ccc4c(c3F)CN(C3CC(O)C3)S4(=O)=O)n[nH]2)C1 (relative stereo) [Example 84, 3-(3-((4-fluoro-2-(3-hydroxycyclobutyl)-1,1-dioxido-2,3-dihydrobenzo[d]isothiazol-5-yl)amino)-1H-pyrazol-5-yl)cyclopentyl isopropylcarbamate]",0.0086,0.39
"CC[C@H](C)NC(=O)O[C@H]1CC[C@@H](c2cc(Nc3ccc4c(c3F)CS(=O)(=O)N4)n[nH]2)C1 (single isomer, unassigned) [Example 383b]",0.0014,0.015
"CN1c2ccc(Nc3cc([C@@H]4CC[C@H](OC(=O)NC5(C)COC5)C4)[nH]n3)c(F)c2CS1(=O)=O (single isomer, unassigned) [Example 332b, cis-3-(3-((4-fluoro-1-methyl-2,2-dioxido-1,3-dihydrobenzo[c]isothiazol-5-yl)amino)-1H-pyrazol-5-yl)cyclopentyl(3-methyloxetan-3-yl)carbamate]",0.0035,0.16
"[2H]C([2H])([2H])N1Cc2c(ccc(Nc3cc([C@H]4CC[C@@H](OC(=O)NC5(C)CC5)C4)[nH]n3)c2F)S1(=O)=O (racemic) [Example 132, cis-3-(3-((4-fluoro-2-(methyl-d3)-1,1-dioxido-2,3-dihydrobenzo[d]isothiazol-5-yl)amino)-1H-pyrazol-5-yl)cyclopentyl(1-methylcyclopropyl)carbamate]",0.0016,0.104
"CCCNC(=O)O[C@H]1CC[C@@H](c2cc(Nc3ccc4c(c3F)CN(C3CC3)S4(=O)=O)n[nH]2)C1 (single isomer, unassigned) [Example 118a, cis-3-(3-((2-cyclopropyl-4-fluoro-1,1-dioxido-2,3-dihydrobenzo[d]isothiazol-5-yl)amino)-1H-pyrazol-5-yl)cyclopentyl propylcarbamate]",0.014,0.395
"[2H]C([2H])([2H])N1c2c(F)cc(Nc3cc([C@@H]4CC[C@H](OC(=O)NCCC)C4)[nH]n3)cc2CS1(=O)=O (single isomer, unassigned) [Example 290a, cis-3-(3-((7-fluoro-1-(methyl-d3)-2,2-dioxido-1,3-dihydrobenzo[c]isothiazol-5-yl)amino)-1H-pyrazol-5-yl)cyclopentyl propylcarbamate]",0.016,0.356
"CC(NC(=O)O[C@H]1CC[C@@H](c2cc(Nc3cc4c(cc3F)S(=O)(=O)NC4)n[nH]2)C1)C1CC1 (relative stereo) [Example 413, cis-3-(3-((6-fluoro-1,1-dioxido-2,3-dihydrobenzo[d]isothiazol-5-yl)amino)-1H-pyrazol-5-yl)cyclopentyl(1-cyclopropylethyl)carbamate]",0.0035,0.412
